Assay results from patent US10323041B2, “Bicyclic derivatives, a process for their preparation and pharmaceutical compositions containing them” (LES LABORATOIRES SERVIER, priority 2015, dated 2019).
Where two headings read alike, the source gives them in different places.

Experiments:
[1] = test system: cleaved form of PARP; assay: Quantification of the cleaved form of PARP in vivo; set-up: species or system mice (SCID strain); conditions: AMO-1 xenograft in SCID mice; cleaved PARP in tumour lysates, treated / control; intraveinous or oral routes
Experimental: The ability of the compounds of the invention to induce apoptosis, by measuring cleaved PARP levels, is evaluated in a xenograft model of AMO-1 multiple myeloma cells.
1.10^7 AMO-1 cells are grafted sub-cutaneously into immunosuppressed mice (SCID strain). 12 to 14 days after the graft, the animals are treated by intraveinous or oral routes with the various compounds. After treatment, the tumour masses are recovered and lysed, and the cleaved form of PARP is quantified in the tumour lysates.
The quantification is carried out using the “Meso Scale Discovery (MSD) ELISA platform” test, which specifically assays the cleaved form of PARP. It is expressed in the form of an activation factor corresponding to the ratio between the quantity of cleaved PARP in the treated mice divided by the quantity of cleaved PARP in the control mice.

[2] = molecular target: Mcl-1 protein (Homo sapiens, UniProt Q07820); assay: Inhibition of Mcl-1 by the fluorescence polarisation technique; format: binding; conditions: Method 1 (not underlined) or Method 2 (underlined); underlining not visible; first value where cell prints two; read-out: IC50 (M) Mcl-1 FP
Chain of Mcl-1 protein (Q07820 whole entry): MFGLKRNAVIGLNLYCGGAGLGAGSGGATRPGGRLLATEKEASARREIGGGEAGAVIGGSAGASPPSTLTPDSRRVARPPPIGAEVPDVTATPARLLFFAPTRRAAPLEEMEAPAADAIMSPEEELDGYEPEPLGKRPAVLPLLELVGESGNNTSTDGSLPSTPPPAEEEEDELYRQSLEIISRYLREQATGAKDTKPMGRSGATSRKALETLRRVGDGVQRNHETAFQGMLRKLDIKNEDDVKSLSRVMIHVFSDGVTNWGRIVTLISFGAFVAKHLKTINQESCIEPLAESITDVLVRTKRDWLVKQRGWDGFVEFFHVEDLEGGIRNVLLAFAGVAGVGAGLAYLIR
Summary of the method: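 Competitive FP with fluorescein-labelled peptide ligand, 5% DMSO, ~2 h at room temperature, 11-point curves, 4-parameter IC50. Method 1: 1 nM ligand, 5 nM Mcl-1 in HEPES pH 7.4 buffer; Method 2: 10 nM ligand, 10 nM Mcl-1 in phosphate pH 7.4 buffer, 50 μM unlabelled ligand as full-inhibition control.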

[3] = test system: H929 multiple myeloma tumour line; assay: In vitro cytotoxicity, Microculture Tetrazolium Assay on H929 cells; format: cell-based; conditions: cell viability, read-out: IC50 (M) MTT H929
Experimental: The cytotoxicity studies were carried out on the H929 multiple myeloma tumour line.
The cells are distributed onto microplates and exposed to the test compounds for 48 hours. The cell viability is then quantified by a colorimetric assay, the Microculture Tetrazolium Assay (Cancer Res., 1987, 47, 939-942).

[4] = Homo sapiens, NCI-H929, exposed for 48 hours

SMILES	IC50 [2]	PARP fold [1]	IC50 [3, 4]	IC50 ([3]; exposed for 48 hours)
COc1ccccc1-c1nccc(COc2ccccc2CC(Oc2cccc3sc(-c4ccc(F)cc4)c(-c4ccc(OCCN5CCN(C)CC5)c(Cl)c4C)c23)C(=O)O)n1 (single isomer, unassigned) [Example 53]	2.2e-08 M	40.2 fold	2.53e-08 M	–
COc1ccccc1-c1nccc(COc2ccccc2CC(Nc2ncnc3oc(-c4ccc(F)cc4)c(-c4ccc(OCCN5CCN(C)CC5)c(Cl)c4C)c23)C(=O)O)n1 [Example 8, N-[(5Sa)-5-{3-chloro-2-methyl-4-[2-(4-methylpiperazin-1-yl)ethoxy]phenyl}-6-(4-fluorophenyl)furo[2,3-d]pyrimidin-4-yl]-2-{[2-(2-methoxyphenyl)pyrimidin-4-yl]methoxy}-D-phenylalanine]	6.6e-09 M	55.4 fold	1.78e-08 M	–
COc1ccccc1-c1nccc(COc2ccccc2CC(Oc2cc(F)cc3oc(-c4ccc(F)cc4)c(-c4ccc(OCCN5CCN(C)CC5)c(Cl)c4C)c23)C(=O)O)n1 [Example 67, (2R)-2-{[(3Sa)-3-{3-chloro-2-methyl-4-[2-(4-methylpiperazin-1-yl)ethoxy]phenyl}-6-fluoro-2-(4-fluorophenyl)-1-benzofuran-4-yl]oxy}-3-(2-{[2-(2-methoxyphenyl)pyrimidin-4-yl]methoxy}phenyl)propanoic acid]	1.4e-08 M	29.3 fold	8.36e-08 M	–
COc1ccccc1CC(Oc1cccc2cc(-c3ccco3)n(-c3ccc(OCCN4CCN(C)CC4)c(Cl)c3C)c12)C(=O)O [Example 59, (2R)-2-{[(1Sa)-1-{3-chloro-2-methyl-4-[2-(4-methylpiperazin-1-yl)ethoxy]phenyl}-2-(furan-2-yl)-1H-indol-7-yl]oxy}-3-(2-methoxyphenyl)propanoic acid]	3.6e-08 M	–	1.24e-06 M	–
COc1ccccc1CC(Nc1ncnc2oc(-c3ccc(F)cc3)c(-c3ccc(OCCN4CCN(C)CC4)c(Cl)c3C)c12)C(=O)O [Example 7, N-[(5Sa)-5-{3-chloro-2-methyl-4-[2-(4-methylpiperazin-1-yl)ethoxy]phenyl}-6-(4-fluorophenyl)furo[2,3-d]pyrimidin-4-yl]-2-methoxy-D-phenylalanine]	1.1e-07 M	–	7.57e-07 M	–
COc1ccccc1-c1nccc(COc2ccccc2CC(Oc2ccnc3sc(-c4ccc(F)cc4)c(-c4ccc(OCCN5CCN(C)CC5)c(Cl)c4C)c23)C(=O)OC(C)OC(=O)N(C)C)n1 [Example 75, 1-[(dimethylcarbamoyl)oxy]ethyl (2R)-2-{[(3Sa)-3-{3-chloro-2-methyl-4-[2-(4-methylpiperazin-1-yl)ethoxy]phenyl}-2-(4-fluorophenyl)thieno[2,3-b]pyridin-4-yl]oxy}-3-(2-{[2-(2-methoxyphenyl)pyrimidin-4-yl]methoxy}phenyl)propanoate]	5.61e-07 M	–	7.55e-08 M	–
Cc1c(-c2c(-c3ccc(Cl)o3)oc3ncnc(O[C@H](Cc4ccccc4OCc4cnccn4)C(=O)O)c23)ccc(OCCN2CCN(C)CC2)c1Cl [Example 5, (2R)-2-{[6-(5-chlorofuran-2-yl)-5-{3-chloro-2-methyl-4-[2-(4-methylpiperazin-1-yl)ethoxy]phenyl}furo[2,3-d]pyrimidin-4-yl]oxy}-3-[2-(pyrazin-2-ylmethoxy)phenyl]propanoic acid]	1.5e-08 M	–	6.19e-07 M	–
Cc1c(-c2c(-c3ccc(F)cc3)oc3ncnc(O[C@H](Cc4ccccc4OCc4cnccn4)C(=O)O)c23)ccc(OCCN2CCN(C)CC2)c1Cl [Example 4, (2R)-2-{[5-{3-chloro-2-methyl-4-[2-(4-methylpiperazin-1-yl)ethoxy]phenyl}-6-(4-fluorophenyl)furo[2,3-d]pyrimidin-4-yl]oxy}-3-[2-(pyrazin-2-ylmethoxy)phenyl]propanoic acid]	2.9e-08 M	–	3.29e-07 M	–

Continued, in another order:

IC50 [2]	SMILES	PARP fold [1]	IC50 [3, 4]	IC50 ([3]; exposed for 48 hours)
3.8e-09 M	COc1ccccc1-c1nccc(COc2ccccc2C[C@@H](Oc2ncnc3oc(-c4ccc(F)cc4)c(-c4ccc(OCCN5CCN(C)CC5)c(Cl)c4C)c23)C(=O)O)n1 [Example 1, (2R)-2-{[5-{3-chloro-2-methyl-4-[2-(4-methylpiperazin-1-yl)ethoxy]phenyl}-6-(4-fluorophenyl)furo[2,3-d]pyrimidin-4-yl]oxy}-3-(2-{[2-(2-methoxyphenyl)pyrimidin-4-yl]methoxy}phenyl)propanoic acid]	157.5 fold	2.41e-08 M	–
6e-09 M	CCc1c(-c2c(-c3ccc(F)cc3)oc3ncnc(O[C@H](Cc4ccccc4OCc4ccnc(-c5ccccc5OC)n4)C(=O)O)c23)ccc(OCCN2CCN(C)CC2)c1Cl [Example 2, (2R)-2-{[5-{3-chloro-2-ethyl-4-[2-(4-methylpiperazin-1-yl)ethoxy]phenyl}-6-(4-fluorophenyl)furo[2,3-d]pyrimidin-4-yl]oxy}-3-(2-{[2-(2-methoxyphenyl)pyrimidin-4-yl]methoxy}phenyl)propanoic acid]	216.3 fold	1.45e-08 M	–
8.6e-08 M	COc1ccccc1-c1nccc(COc2ccccc2C[C@@H](Nc2ncnc3oc(-c4ccc(F)cc4)c(-c4ccc(OCCN5CCN(C)CC5)c(Cl)c4C)c23)C(=O)O)n1 [Example 9, N-[(5Ra)-5-{3-chloro-2-methyl-4-[2-(4-methylpiperazin-1-yl)ethoxy]phenyl}-6-(4-fluorophenyl)furo[2,3-d]pyrimidin-4-yl]-2-{[2-(2-methoxyphenyl)pyrimidin-4-yl]methoxy}-D-phenylalanine]	–	–	6.89e-08 M
1.55e-08 M	COc1ccccc1-c1nccc(COc2ccccc2C[C@@H](Oc2ncnc3c2c(-c2ccc(OCCN4CCN(C)CC4)c(Cl)c2C)c(-c2ccc(F)cc2)n3C)C(=O)O)n1 [Example 72, (2R)-2-[5-[3-chloro-2-methyl-4-[2-(4-methylpiperazin-1-yl)ethoxy]phenyl]-6-(4-fluorophenyl)-7-methyl-pyrrolo[2,3-d]pyrimidin-4-yl]oxy-3-[2-[[2-(2-methoxyphenyl)pyrimidin-4-yl]methoxy]phenyl]propanoic acid]	15.7 fold	3.2e-08 M	–
